Experimental data taken from PubChem BioAssay (NCI).
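48-hour exposure; five concentrations; linearly interpolated endpoints. The concentration for full growth arrest is given as TGI.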

Legend:
Assay in all cases: NCI anticancer screen, dose series, 48 h
786-0 renal = test system: 786-0 renal
A549 NSCLC = test system: A549 NSCLC
CAKI-1 renal = test system: CAKI-1 renal
COLO 205 colon = test system: COLO 205 colon
HCC-2998 colon = test system: HCC-2998 colon
HCT-116 colon = test system: HCT-116 colon
HOP-62 NSCLC = test system: HOP-62 NSCLC
HT29 colon = test system: HT29 colon
MALME-3M melanoma = test system: MALME-3M melanoma
NCI-H460 lung = test system: NCI-H460 lung
NCI-H522 lung = test system: NCI-H522 lung
SF-539 CNS = test system: SF-539 CNS
SNB-19 CNS = test system: SNB-19 CNS
U251 CNS = test system: U251 CNS
UO-31 renal = test system: UO-31 renal
RXF 393 renal = test system: RXF 393 renal
MCF7 breast = test system: MCF7 breast
T-47D breast = test system: T-47D breast
MDA-MB-231 breast = test system: MDA-MB-231 breast

## Cc1cc(N(CCC#N)CCC#N)ccc1/C=C/C(=O)Nc1cccc(Cl)c1
786-0 renal
  TGI: > 100 µM
A549 NSCLC
  TGI: > 100 µM
CAKI-1 renal
  TGI: > 100 µM
COLO 205 colon
  TGI: > 100 µM
HCC-2998 colon
  TGI: > 100 µM
HCT-116 colon
  TGI: > 100 µM
HOP-62 NSCLC
  TGI: > 100 µM
HT29 colon
  TGI: > 100 µM
MALME-3M melanoma
  TGI: > 100 µM
NCI-H460 lung
  TGI: > 100 µM
NCI-H522 lung
  TGI: > 100 µM
SF-539 CNS
  TGI: > 100 µM
SNB-19 CNS
  TGI: > 100 µM
U251 CNS
  TGI: > 100 µM
UO-31 renal
  TGI: > 100 µM

## CCOc1ccc2nc(NC(=O)c3c/c(=N\NC(=O)C[N+](C)(C)C)c4ccc(O)cc4o3)sc2c1
786-0 renal
  TGI: 10.9 µM
A549 NSCLC
  TGI: 7.84 µM
CAKI-1 renal
  TGI: 18.6 µM
COLO 205 colon
  TGI: 20.7 µM
HCC-2998 colon
  TGI: 20.8 µM
HCT-116 colon
  TGI: > 29.8 µM
HT29 colon
  TGI: 13 µM
MALME-3M melanoma
  TGI: 2.56 µM
NCI-H460 lung
  TGI: 13.4 µM
NCI-H522 lung
  TGI: 4.14 µM
RXF 393 renal
  TGI: 14.4 µM
SF-539 CNS
  TGI: 11 µM
SNB-19 CNS
  TGI: 17.8 µM
U251 CNS
  TGI: 10.5 µM
UO-31 renal
  TGI: 24.7 µM

## CCOC1(COP(=O)(OCc2ccccc2)OCc2ccccc2)COC(COP(=O)(OCc2ccccc2)OCc2ccccc2)(OCC)CO1 (configuration not stated)
786-0 renal
  TGI: > 100 µM
A549 NSCLC
  TGI: > 100 µM
CAKI-1 renal
  TGI: > 100 µM
COLO 205 colon
  TGI: > 100 µM
HCC-2998 colon
  TGI: > 100 µM
HCT-116 colon
  TGI: > 100 µM
HOP-62 NSCLC
  TGI: > 100 µM
HT29 colon
  TGI: > 100 µM
MALME-3M melanoma
  TGI: > 100 µM
NCI-H460 lung
  TGI: > 100 µM
NCI-H522 lung
  TGI: > 100 µM
RXF 393 renal
  TGI: > 100 µM
SF-539 CNS
  TGI: > 100 µM
SNB-19 CNS
  TGI: > 100 µM
U251 CNS
  TGI: > 100 µM

## N#CC(C#N)=Cc1ccc2c(c1)OC(Cl)O2 (configuration not stated)
786-0 renal
  TGI: 35.2 µM
A549 NSCLC
  TGI: > 100 µM
CAKI-1 renal
  TGI: > 100 µM
COLO 205 colon
  TGI: 52 µM
HCT-116 colon
  TGI: 38.6 µM
HT29 colon
  TGI: 44.9 µM
MALME-3M melanoma
  TGI: 34.8 µM
MCF7 breast
  TGI: > 100 µM
RXF 393 renal
  TGI: 52.3 µM
SF-539 CNS
  TGI: 38.6 µM
SNB-19 CNS
  TGI: 66.4 µM
T-47D breast
  TGI: > 100 µM
U251 CNS
  TGI: 41.4 µM
UO-31 renal
  TGI: 30.7 µM

## CCOC(=O)/C(C(=S)Nc1ccccc1)=C(/N)N1CCCC1
786-0 renal
  TGI: > 100 µM
A549 NSCLC
  TGI: > 100 µM
CAKI-1 renal
  TGI: > 100 µM
COLO 205 colon
  TGI: > 100 µM
HCC-2998 colon
  TGI: > 100 µM
HCT-116 colon
  TGI: > 100 µM
HOP-62 NSCLC
  TGI: > 100 µM
HT29 colon
  TGI: > 100 µM
MALME-3M melanoma
  TGI: > 100 µM
MCF7 breast
  TGI: > 100 µM
MDA-MB-231 breast
  TGI: > 100 µM
NCI-H460 lung
  TGI: > 100 µM
NCI-H522 lung
  TGI: > 100 µM
RXF 393 renal
  TGI: > 100 µM
SF-539 CNS
  TGI: > 100 µM
SNB-19 CNS
  TGI: > 100 µM
U251 CNS
  TGI: > 100 µM
UO-31 renal
  TGI: > 100 µM

## COc1cccc(/C=C2/Sc3scc(-c4ccccc4)[n+]3C2=O)c1O
786-0 renal
  TGI: 32.1 µM
A549 NSCLC
  TGI: > 100 µM
CAKI-1 renal
  TGI: 47.7 µM
COLO 205 colon
  TGI: > 100 µM
HCC-2998 colon
  TGI: 30.7 µM
HCT-116 colon
  TGI: 29.2 µM
HOP-62 NSCLC
  TGI: 68.4 µM
HT29 colon
  TGI: 37.3 µM
MCF7 breast
  TGI: > 100 µM
MDA-MB-231 breast
  TGI: 79.2 µM
NCI-H460 lung
  TGI: 37.9 µM
NCI-H522 lung
  TGI: 52.8 µM
RXF 393 renal
  TGI: 29.8 µM
SF-539 CNS
  TGI: 47.6 µM
SNB-19 CNS
  TGI: 67 µM
U251 CNS
  TGI: 43.3 µM
UO-31 renal
  TGI: 26.9 µM

## CC1(C)CS(=O)(=O)CC(C)(C)C(=N/N)/C1=N\N
786-0 renal
  TGI: > 100 µM
A549 NSCLC
  TGI: > 100 µM
CAKI-1 renal
  TGI: > 100 µM
COLO 205 colon
  TGI: > 100 µM
HCC-2998 colon
  TGI: > 100 µM
HCT-116 colon
  TGI: > 100 µM
HOP-62 NSCLC
  TGI: > 100 µM
HT29 colon
  TGI: > 100 µM
MALME-3M melanoma
  TGI: > 100 µM
MCF7 breast
  TGI: > 100 µM
NCI-H460 lung
  TGI: > 100 µM
NCI-H522 lung
  TGI: > 100 µM
SF-539 CNS
  TGI: > 100 µM
SNB-19 CNS
  TGI: > 100 µM
T-47D breast
  TGI: > 100 µM
U251 CNS
  TGI: > 100 µM

## CN(C)CCCNC(=O)N/N=C/c1cccc([N+](=O)[O-])c1
786-0 renal
  TGI: > 100 µM
A549 NSCLC
  TGI: > 100 µM
HCT-116 colon
  TGI: > 100 µM
HT29 colon
  TGI: > 100 µM
MALME-3M melanoma
  TGI: > 100 µM
NCI-H460 lung
  TGI: > 100 µM
NCI-H522 lung
  TGI: > 100 µM
RXF 393 renal
  TGI: > 100 µM
SF-539 CNS
  TGI: > 100 µM
SNB-19 CNS
  TGI: > 100 µM
U251 CNS
  TGI: > 100 µM

## CC12NN=NC1C(=O)NC2=O (configuration not stated)
786-0 renal
  TGI: > 100 µM
A549 NSCLC
  TGI: > 100 µM
CAKI-1 renal
  TGI: > 100 µM
COLO 205 colon
  TGI: > 100 µM
HCC-2998 colon
  TGI: > 100 µM
HCT-116 colon
  TGI: > 100 µM
HOP-62 NSCLC
  TGI: > 100 µM
HT29 colon
  TGI: > 100 µM
NCI-H460 lung
  TGI: > 100 µM
NCI-H522 lung
  TGI: > 100 µM
SF-539 CNS
  TGI: > 100 µM
SNB-19 CNS
  TGI: > 100 µM
U251 CNS
  TGI: > 100 µM
UO-31 renal
  TGI: > 100 µM

## CN(C)c1ccc(N=Nc2ccc3nc[nH]c3c2)cc1
786-0 renal
  TGI: 36.1 µM
A549 NSCLC
  TGI: > 100 µM
CAKI-1 renal
  TGI: > 100 µM
COLO 205 colon
  TGI: 50.4 µM
HCT-116 colon
  TGI: 38.8 µM
HT29 colon
  TGI: 37 µM
MALME-3M melanoma
  TGI: 53 µM
MDA-MB-231 breast
  TGI: 39.4 µM
NCI-H460 lung
  TGI: 37.4 µM
NCI-H522 lung
  TGI: 51.1 µM
RXF 393 renal
  TGI: 88.7 µM
SF-539 CNS
  TGI: 36.9 µM
SNB-19 CNS
  TGI: > 100 µM
T-47D breast
  TGI: > 100 µM
U251 CNS
  TGI: 76.4 µM
UO-31 renal
  TGI: 65.9 µM

## O=C(O[C@H]1[C@@H](O)[C@H](n2cnc3c(Cl)ncnc32)O[C@@H]1COC(c1ccccc1)(c1ccccc1)c1ccccc1)c1ccccc1
786-0 renal
  TGI: 58.1 µM
A549 NSCLC
  TGI: > 100 µM
CAKI-1 renal
  TGI: 10.1 µM
COLO 205 colon
  TGI: 29.3 µM
HCC-2998 colon
  TGI: 41.9 µM
HCT-116 colon
  TGI: > 100 µM
HOP-62 NSCLC
  TGI: 51.7 µM
HT29 colon
  TGI: 62.1 µM
MCF7 breast
  TGI: 23.4 µM
MDA-MB-231 breast
  TGI: 51.1 µM
NCI-H460 lung
  TGI: 64.9 µM
NCI-H522 lung
  TGI: 91.5 µM
RXF 393 renal
  TGI: 48.1 µM
SF-539 CNS
  TGI: 47.3 µM
SNB-19 CNS
  TGI: > 100 µM
T-47D breast
  TGI: 24.9 µM
U251 CNS
  TGI: 59.2 µM
UO-31 renal
  TGI: 2.73 µM

## COc1cc(OC)c(/C=C2\N=C(C)N(Nc3nnc(NN4C(=O)/C(=C/c5c(OC)cc(OC)cc5OC)N=C4C)c4ccccc34)C2=O)c(OC)c1
786-0 renal
  TGI: > 100 µM
A549 NSCLC
  TGI: > 100 µM
COLO 205 colon
  TGI: > 100 µM
HCT-116 colon
  TGI: > 100 µM
HOP-62 NSCLC
  TGI: > 100 µM
HT29 colon
  TGI: > 100 µM
NCI-H460 lung
  TGI: > 100 µM
NCI-H522 lung
  TGI: > 100 µM
RXF 393 renal
  TGI: > 100 µM
SF-539 CNS
  TGI: > 100 µM
SNB-19 CNS
  TGI: > 100 µM
U251 CNS
  TGI: > 100 µM

## COc1ccc2[nH]c3c(c2c1)CCn1c-3nc2ccccc2c1=O
786-0 renal
  TGI: > 25 µM
A549 NSCLC
  TGI: > 25 µM
COLO 205 colon
  TGI: > 25 µM
HCC-2998 colon
  TGI: > 25 µM
HCT-116 colon
  TGI: > 25 µM
HOP-62 NSCLC
  TGI: > 25 µM
MCF7 breast
  TGI: > 25 µM
MDA-MB-231 breast
  TGI: > 25 µM
NCI-H460 lung
  TGI: > 25 µM
NCI-H522 lung
  TGI: > 25 µM
SF-539 CNS
  TGI: > 25 µM
SNB-19 CNS
  TGI: > 25 µM
T-47D breast
  TGI: > 25 µM
U251 CNS
  TGI: > 25 µM
UO-31 renal
  TGI: > 25 µM

## O=c1cc(-c2ccccc2)[nH]c2cc(O)ccc12
786-0 renal
  TGI: > 100 µM
A549 NSCLC
  TGI: 81.8 µM
CAKI-1 renal
  TGI: 71.6 µM
COLO 205 colon
  TGI: 32.3 µM
HCC-2998 colon
  TGI: 74.7 µM
HCT-116 colon
  TGI: 31.3 µM
HOP-62 NSCLC
  TGI: 70.9 µM
HT29 colon
  TGI: 46.1 µM
MALME-3M melanoma
  TGI: > 100 µM
NCI-H460 lung
  TGI: 33.3 µM
NCI-H522 lung
  TGI: 76.2 µM
RXF 393 renal
  TGI: 37.5 µM
SF-539 CNS
  TGI: > 100 µM
SNB-19 CNS
  TGI: > 100 µM
U251 CNS
  TGI: 90.7 µM
UO-31 renal
  TGI: 49.3 µM

## NNC(=O)c1ccc(-n2nnc(C(=O)NN)c2C(=O)NN)cc1
786-0 renal
  TGI: > 100 µM
A549 NSCLC
  TGI: > 100 µM
CAKI-1 renal
  TGI: > 100 µM
COLO 205 colon
  TGI: > 100 µM
HCC-2998 colon
  TGI: > 100 µM
HCT-116 colon
  TGI: > 100 µM
HOP-62 NSCLC
  TGI: > 100 µM
HT29 colon
  TGI: > 100 µM
MALME-3M melanoma
  TGI: > 100 µM
MCF7 breast
  TGI: > 100 µM
MDA-MB-231 breast
  TGI: > 100 µM
NCI-H460 lung
  TGI: > 100 µM
SNB-19 CNS
  TGI: > 100 µM
U251 CNS
  TGI: > 100 µM
UO-31 renal
  TGI: > 100 µM
